Measured values taken from ChEMBL document CHEMBL1201862, “PubChem BioAssay data set” (2004).
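Assay format: 96-well plates, 48-hour exposure. GI50 marks 50% less growth.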 The source made the active and inactive calls. Rule as the data show it: active = GI50 up to about 1.1 µM and inactive = higher.

Legend:
Test in all cases: inhibition of tumour cell growth, NCI panel, 48 h
ACHN = test system: ACHN
HL-60 = test system: HL-60
NCI/ADR-RES = test system: NCI/ADR-RES
SF-268 = test system: SF-268
HCT-15 = test system: HCT-15
HCC 2998 = test system: HCC 2998
MDA-MB-231 = test system: MDA-MB-231
PC-3 = test system: PC-3
DU-145 = test system: DU-145
U-251 = test system: U-251
786-0 = test system: 786-0
Hs-578T = test system: Hs-578T
MDA-N = test system: MDA-N
SN12C = test system: SN12C
SNB-19 = test system: SNB-19
SK-OV-3 = test system: SK-OV-3
EKVX = test system: EKVX
A549 = test system: A549
OVCAR-5 = test system: OVCAR-5
COLO 205 = test system: COLO 205

Measured: GI50

Sc1nc2c(c(-c3nc(S)nc4c3CCCCCCCCCC4)n1)CCCCCCCCCC2
inactive: ACHN > 100 µM | HL-60 > 100 µM | NCI/ADR-RES > 100 µM | SF-268 > 100 µM | HCC 2998 > 100 µM | MDA-MB-231 > 100 µM | PC-3 > 100 µM | DU-145 > 100 µM | U-251 > 100 µM | 786-0 > 100 µM | Hs-578T > 100 µM | MDA-N > 100 µM | SN12C > 100 µM | SNB-19 > 100 µM | SK-OV-3 > 100 µM | EKVX > 100 µM | A549 > 100 µM | OVCAR-5 > 100 µM | COLO 205 > 100 µM
> 100 µM: HCT-15

C/C(=N\NC(=S)N(C)CCN(C)C(=S)N/N=C(\C)c1ccccn1)c1ccccn1
active: ACHN 0.366 µM | HL-60 0.365 µM | NCI/ADR-RES 0.346 µM | SF-268 0.321 µM | MDA-MB-231 0.246 µM | PC-3 0.553 µM | DU-145 1.11 µM | U-251 0.745 µM | SN12C 1.05 µM | COLO 205 0.247 µM
0.45 µM: HCT-15
inactive: HCC 2998 10.4 µM | 786-0 > 100 µM | Hs-578T 25.9 µM | MDA-N 3.71 µM | SNB-19 3.04 µM | SK-OV-3 4.21 µM | EKVX 1.73 µM | A549 2.37 µM | OVCAR-5 5.9 µM

CCN(CC)C(=O)CCN1CC1
> 10 µM: HCT-15
inactive: ACHN > 10 µM | HL-60 > 10 µM | NCI/ADR-RES > 10 µM | SF-268 > 10 µM | HCC 2998 > 10 µM | MDA-MB-231 > 10 µM | PC-3 > 10 µM | DU-145 > 10 µM | U-251 > 10 µM | 786-0 > 10 µM | Hs-578T > 10 µM | MDA-N > 10 µM | SN12C > 10 µM | SNB-19 > 10 µM | SK-OV-3 > 10 µM | EKVX > 10 µM | A549 > 10 µM | OVCAR-5 > 10 µM | COLO 205 > 10 µM

COc1ccc2nc3c([N+](=O)[O-])ccc4c3c(c2c1)N=CN4CCCN(C)C
inactive: HL-60 2.77 µM | NCI/ADR-RES 2.32 µM | SF-268 2.77 µM | HCC 2998 1.37 µM | MDA-MB-231 1.37 µM | PC-3 1.21 µM | DU-145 2.52 µM | U-251 1.65 µM | Hs-578T 7.28 µM | MDA-N 4.62 µM | SN12C 1.97 µM | SNB-19 4.74 µM | SK-OV-3 4.4 µM | EKVX 1.64 µM | OVCAR-5 10.2 µM
0.53 µM: HCT-15
active: ACHN 0.743 µM | 786-0 0.614 µM | A549 0.716 µM | COLO 205 0.855 µM

COc1ccc(Nc2nc(N)c(C(=O)c3cccs3)s2)cc1
inactive: ACHN 12.2 µM | HL-60 3.56 µM | NCI/ADR-RES 10.7 µM | SF-268 17 µM | MDA-MB-231 26.2 µM | PC-3 11.4 µM | DU-145 5.56 µM | U-251 7.5 µM | 786-0 8.49 µM | Hs-578T 11.5 µM | MDA-N 3.92 µM | SN12C 27.5 µM | SNB-19 11 µM | SK-OV-3 20.6 µM | EKVX 16.9 µM | A549 5.7 µM | OVCAR-5 15.8 µM | COLO 205 3.98 µM
3.11 µM: HCT-15
active: HCC 2998 0.931 µM

Oc1cc(Cl)cc2cccnc12
0.552 µM: HCT-15
active: HL-60 0.229 µM | NCI/ADR-RES 0.354 µM | SF-268 0.296 µM | U-251 0.971 µM | EKVX 0.804 µM | A549 0.998 µM
inactive: ACHN 1.38 µM | HCC 2998 24.5 µM | MDA-MB-231 2.19 µM | PC-3 1.26 µM | DU-145 9.71 µM | 786-0 8.71 µM | Hs-578T 4.05 µM | MDA-N 17.9 µM | SN12C 1.7 µM | SNB-19 5.94 µM | SK-OV-3 43.7 µM | OVCAR-5 4.85 µM | COLO 205 6.65 µM

CSC1=Nc2ccccc2-c2nc3ccccc3cc2C1
> 100 µM: HCT-15
inactive: ACHN > 100 µM | HL-60 76 µM | NCI/ADR-RES > 100 µM | SF-268 > 100 µM | HCC 2998 > 100 µM | MDA-MB-231 > 100 µM | PC-3 > 100 µM | DU-145 > 100 µM | U-251 > 100 µM | 786-0 > 100 µM | Hs-578T > 100 µM | MDA-N > 100 µM | SN12C > 100 µM | SNB-19 > 100 µM | SK-OV-3 > 100 µM | EKVX > 100 µM | A549 > 100 µM | OVCAR-5 > 100 µM | COLO 205 > 100 µM
